Source: paper PMC2784226, “Degradation of Host Sphingomyelin Is Essential for Leishmania Virulence” (PLoS Pathogens, 2009)

Target: T1, ScISC1 (Saccharomyces cerevisiae, UniProt P40015)
T1 construct: gene ISC1; full-length ORF expressed in L. major iscl- null mutant; whole cell lysate
Assay: TLC of NBD-ceramide, intact parasites and whole cell lysate
Format: cell-based
Details: labelled compound; expressed in iscl- null mutant

T1 sequence (P40015 whole entry): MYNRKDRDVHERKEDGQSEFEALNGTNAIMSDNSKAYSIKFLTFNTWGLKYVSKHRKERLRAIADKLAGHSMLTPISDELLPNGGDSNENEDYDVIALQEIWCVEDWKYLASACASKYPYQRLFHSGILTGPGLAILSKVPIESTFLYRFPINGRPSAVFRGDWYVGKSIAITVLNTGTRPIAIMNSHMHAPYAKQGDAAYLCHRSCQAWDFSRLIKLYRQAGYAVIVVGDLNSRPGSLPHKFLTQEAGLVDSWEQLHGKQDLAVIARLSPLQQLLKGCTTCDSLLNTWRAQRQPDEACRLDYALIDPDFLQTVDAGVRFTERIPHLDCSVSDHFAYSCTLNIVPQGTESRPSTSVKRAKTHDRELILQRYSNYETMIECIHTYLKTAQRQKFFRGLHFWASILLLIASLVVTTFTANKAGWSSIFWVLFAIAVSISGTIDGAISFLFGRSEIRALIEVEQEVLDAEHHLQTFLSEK

In the case of `CCCCCCCCCCCCC/C=C/[C@@H](O)[C@H](COP(=O)([O-])OCC[N+](C)(C)C)NC(=O)CCCCCNc1ccc([N+](=O)[O-])c2nonc12` [NBD C6-sphingomyelin, N-[6-[(7-nitro-2-1,3-benzoxadiazol-4-yl)amino]hexanoyl]-sphingosine-1-phosphocholine], the “TLC of NBD-ceramide, intact parasites and whole cell lysate” value is reported as “expression of ScISC1 restored the ability to degrade sphingomyelin in iscl^−”.
